Reference: PubChem BioAssay (NCI)
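Each compound was tested at five concentrations against cells in 96-well plates for 48 hours. TGI marks complete inhibition of growth.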

Experiments:
Assay in all cases: NCI-60 cell line screen, 48 h
[1] = test system: NCI/ADR-RES ovarian
[2] = test system: PC-3 prostate
[3] = test system: SK-OV-3 ovarian
[4] = test system: M14 melanoma
[5] = test system: RXF 393 renal
[6] = test system: OVCAR-4 ovarian
[7] = test system: SK-MEL-28 melanoma
[8] = test system: OVCAR-3 ovarian
[9] = test system: OVCAR-8 ovarian
[10] = test system: MALME-3M melanoma
[11] = test system: HT29 colon
[12] = test system: OVCAR-5 ovarian
[13] = test system: CAKI-1 renal
[14] = test system: NCI-H460 lung
[15] = test system: SW-620 colon
[16] = test system: IGROV1 ovarian
[17] = test system: SR leukemia
[18] = test system: A498 renal
[19] = test system: DU-145 prostate
[20] = test system: EKVX NSCLC

SMILES: N#Cc1nc(COCCOCc2ccccc2)oc1N
- TGI [1]: > 100 µM
- TGI [2]: > 100 µM
- TGI [3]: > 100 µM
- TGI [4]: > 100 µM
- TGI [5]: > 100 µM
- TGI [6]: > 100 µM
- TGI [7]: > 100 µM
- TGI [8]: > 100 µM
- TGI [9]: > 100 µM
- TGI [10]: > 100 µM
- TGI [11]: > 100 µM
- TGI [12]: > 100 µM
- TGI [13]: > 100 µM
- TGI [14]: > 100 µM
- TGI [15]: > 100 µM
- TGI [16]: > 100 µM
- TGI [17]: > 100 µM
- TGI [18]: > 100 µM
- TGI [19]: > 100 µM
- TGI [20]: > 100 µM

SMILES: O=C1NNC(=O)C2C3c4ccccc4C(c4ccccc43)C12 (stereo not given)
- TGI [1]: > 100 µM
- TGI [2]: > 100 µM
- TGI [3]: > 100 µM
- TGI [4]: > 100 µM
- TGI [5]: > 100 µM
- TGI [6]: > 100 µM
- TGI [7]: > 100 µM
- TGI [8]: > 100 µM
- TGI [9]: > 100 µM
- TGI [10]: > 100 µM
- TGI [11]: > 100 µM
- TGI [12]: > 100 µM
- TGI [13]: > 100 µM
- TGI [14]: > 100 µM
- TGI [15]: > 100 µM
- TGI [16]: > 100 µM
- TGI [17]: > 100 µM
- TGI [18]: > 100 µM
- TGI [19]: > 100 µM
- TGI [20]: > 100 µM

SMILES: C=CCN1C(=O)/C(=C/c2ccccc2)NC1=S
- TGI [1]: > 100 µM
- TGI [2]: > 100 µM
- TGI [3]: > 100 µM
- TGI [4]: > 100 µM
- TGI [5]: > 100 µM
- TGI [6]: > 100 µM
- TGI [7]: > 100 µM
- TGI [8]: > 100 µM
- TGI [9]: > 100 µM
- TGI [10]: > 100 µM
- TGI [11]: > 100 µM
- TGI [12]: > 100 µM
- TGI [13]: > 100 µM
- TGI [14]: > 100 µM
- TGI [15]: > 100 µM
- TGI [16]: > 100 µM
- TGI [17]: > 100 µM
- TGI [18]: > 100 µM
- TGI [19]: > 100 µM
- TGI [20]: > 100 µM

SMILES: CCCN=C(NC(=O)c1ccc(Cl)cc1)SC
- TGI [1]: > 100 µM
- TGI [2]: > 100 µM
- TGI [3]: > 100 µM
- TGI [4]: > 100 µM
- TGI [5]: > 100 µM
- TGI [6]: > 100 µM
- TGI [7]: > 100 µM
- TGI [8]: > 100 µM
- TGI [9]: > 100 µM
- TGI [10]: > 100 µM
- TGI [11]: > 100 µM
- TGI [12]: > 100 µM
- TGI [13]: > 100 µM
- TGI [14]: > 100 µM
- TGI [15]: > 100 µM
- TGI [16]: > 100 µM
- TGI [17]: > 100 µM
- TGI [18]: 99.8 µM
- TGI [19]: > 100 µM
- TGI [20]: > 100 µM

SMILES: CC/C(=N/O)c1ccc(Br)s1
- TGI [1]: > 100 µM
- TGI [2]: > 100 µM
- TGI [3]: > 100 µM
- TGI [4]: > 100 µM
- TGI [5]: > 100 µM
- TGI [6]: > 100 µM
- TGI [7]: > 100 µM
- TGI [8]: > 100 µM
- TGI [9]: > 100 µM
- TGI [10]: > 100 µM
- TGI [11]: > 100 µM
- TGI [12]: > 100 µM
- TGI [13]: > 100 µM
- TGI [14]: > 100 µM
- TGI [15]: > 100 µM
- TGI [16]: > 100 µM
- TGI [17]: > 100 µM
- TGI [18]: > 100 µM
- TGI [19]: > 100 µM
- TGI [20]: > 100 µM

SMILES: C=C1CC[C@@]2(OC1)OC1C[C@H]3[C@@H]4CC=C5C[C@@H](O)CC(OC6OCC(OC(=O)[C@@H](O)[C@@H](C)CC)C(OC(C)=O)C6OC6OC(C)C(O)C(O)C6O)[C@]5(C)[C@H]4CC[C@]3(C)C1[C@@H]2C (stereo not given in full)
- TGI [1]: 6 µM
- TGI [2]: 3.16 µM
- TGI [3]: 3.57 µM
- TGI [4]: 4.45 µM
- TGI [5]: 4.48 µM
- TGI [6]: > 10 µM
- TGI [7]: 4.58 µM
- TGI [8]: 3.77 µM
- TGI [9]: 4.31 µM
- TGI [10]: > 10 µM
- TGI [11]: > 10 µM
- TGI [12]: 4.89 µM
- TGI [13]: 7.85 µM
- TGI [14]: 3.32 µM
- TGI [15]: 4.51 µM
- TGI [16]: 7.79 µM
- TGI [17]: 4.4 µM
- TGI [18]: 3.44 µM
- TGI [19]: 4.35 µM
- TGI [20]: 6.51 µM

SMILES: C=C(C)[C@@H](C(=O)OC)N1C(=O)c2ccccc2C1=O
- TGI [1]: > 100 µM
- TGI [2]: > 100 µM
- TGI [3]: > 100 µM
- TGI [4]: > 100 µM
- TGI [5]: > 100 µM
- TGI [6]: > 100 µM
- TGI [7]: > 100 µM
- TGI [8]: > 100 µM
- TGI [9]: > 100 µM
- TGI [10]: > 100 µM
- TGI [11]: > 100 µM
- TGI [12]: > 100 µM
- TGI [13]: > 100 µM
- TGI [14]: > 100 µM
- TGI [15]: > 100 µM
- TGI [16]: > 100 µM
- TGI [17]: > 100 µM
- TGI [18]: > 100 µM
- TGI [19]: > 100 µM
- TGI [20]: > 100 µM
